Key:
[1] = test system: SH-SY5Y and D3 cell cultures; experiment: Intracellular pH measurement (pHrodo); format: cell-based, human; settings: MTZ 100 and 300 μM, AZT 30 and 100 μM; 3 and 12 hours; with and without peptide
Protocol: Cells were plated on 96-wells microplate fluorescence microtiter (ThermoFisher, Waltham, Mass., US). The day after, cells were treated with the different drugs and/or peptides. After this, intracellular pH measurement was performed by using the pHrodo red AM kit, following the indications provided by the manufacturer.

caspase 9 in D3 cells = experiment: Caspase-Glo 9 activity after Aβ challenge; format: cell-based, human; settings: Example 2/3; FIG. 16D, 22
Protocol: (§1) Cells were plated at a confluence of 10.000 cells per well in 96-wells microplate luminescence microtiter (ThermoFisher, Waltham, Mass., US). The day after, cells were treated with the peptides and/or drugs for the experimental times. After that, caspase-Glo 9 assay was performed, following the protocol provided from the manufacturer. Luminescence was measured using a FlexStation 3 Multi-Mode Microplate Reader (Molecular devices, Sunnyvalem Calif., US).

TgSwDI mice = format: in vivo; settings: given with diet
Protocol: The grip strength test was used to measure neuromuscular function and specifically assesses maximal muscle/grip force of the forelimbs (only) or both the fore and hind limbs combined. Motor performance was assessed by the horizontal grasping force applied by the rodent to a specialized stainless steel grid that is connected to a sensitive, electronic force sensor (Bioseb In Vivo Research Instruments). […] With the base of the tail held gently but firmly between thumb and forefinger, the mouse was pulled gently back away from the grid, ensuring that the torso remains horizontal, until the animal loses grip of the grid. For combined fore and hindlimb measurement, the procedure was identical to the forelimb-only procedure except that mouse was lowered to allow both fore and hind paws to attach to the grid before any measurements were taken. […]
To ensure maximal reliability, each measurement of interest (e.g., forelimb or combined) was repeated consecutively for each mouse to obtain 5-6 replicates. […] A truncated mean (mean of replicates after the smallest and largest readings were removed) was calculated for each subject. […]
Mice in each treatment group (WT, Tg, Tg+MTZ, Tg+ATZ) were counted before the beginning of the treatment, at month 2, and at sacrifice (month 16). […]

[2] = test system: caspase 9 in SH-SY5Y neuronal cells; experiment: Caspase-Glo 9 activity after Aβ challenge; format: cell-based, human; settings: for caspase 9 activation: Example 2/3, FIG. 16C, 22
Protocol: Caspase 9 and caspase 3/7 activation was measured by luminescent assays (Caspase-Glo 9 and caspase-Glo 3/7, Promega, Madison, Wis.), in cells treated with the Aβ peptides in DMEM without FBS. Briefly, 10,000 cells/well were plated in 96 wells plates and incubated for 24 hours with the freshly solubilized Aβ peptides. Caspase-Glo reagent was added to the cell cultures resulting in cell lysis, followed by caspase cleavage of the substrate and generation of a luminescent signal produced by the luciferase reaction. After 40 minutes incubation, the amount of caspase activity was evaluated in a plate-reading luminometer (Synergy HT Multi-Mode Microplate Reader, Biotek, Winooski, Vt.) as described in (Fossati et al., 2012b). To inhibit non-specific background activity, the proteasome inhibitor MG-132 was added to the Caspase-Glo reagent before the experiment as indicated by the manufacturer. In all cases results are expressed as fold-change compared to untreated control cells.
as §1

SH-SY5Y neuronal cells = experiment: TMRM assay of mitochondrial membrane potential (ΔΨ); format: cell-based, human; settings: for ΔΨ after pre-aggregated Aβ: any of the used concentrations, 45 minutes
Protocol: (§2) Briefly, cells were plated on 25 mm optical borosilicate poly-L-lysine-coated sterile glass covers (ThermoFisher, Waltham, Mass., US) at a 70% confluence. The day after, cells were washed twice with HBSS and charged with 600 nM TMRM on HBSS. Cells were then incubated for 20 min in the incubator, at 37° C. and washed again with HBSS. After that, the medium was replaced by HBSS containing 150 nM of tetramethylrhodamine methyl ester (TMRM), in order to maintain the equilibrium distribution of the fluorophore. Cells were then mounted on Sykes-Moores chambers (BellCo, Vineland, N.J., US) and treated with the different drugs and/or peptides. An image was taken at minute 0 and at minute 45, after adding the drugs and/or peptides. In this experiment, the peptide was pre-aggregated as above before adding it to the cells.

[3] = test system: D3 cerebral microvascular endothelial cells; experiment: as above; format: cell-based, human; settings: for ΔΨ after pre-aggregated Aβ: any of the used concentrations, 45 minutes
Protocol: as §2

EC and SH-SY5Y cultures = experiment: Immunofluorescence deconvolution microscopy of CytC and MitoTracker (mitochondrial membrane potential); format: cell-based, human; settings: for loss of mitochondrial membrane potential (red dye internalization): Example 3, cells treated with Aβ
Protocol: Both EC and SH-SY5Y cells were plated on to glass chamber slides (Thermo Fisher Scientific), pre-coated with either collagen-I or poly-d-lysine (for ECs and SH-SY5Y cells respectively). After seeding, cells were allowed to attach for 1 day before treatment with the different peptides for 1-3 days, as above. Cells were washed with ice-cold PBS, fixed with 4% paraformaldehyde (10 min at room temperature) and blocked for 1 h with 20 mg/ml BSA in PBST (PBS containing 0.3% Triton X-100). Slides were further incubated with mouse anti-CytC monoclonal antibody (BD Biosciences; 1:200 dilution in PBST containing 5 mg/ml BSA; 2 h at room temperature) followed by Alexa Fluor® 488-conjugated anti-(mouse IgG) antibody (Invitrogen; 1:200 in PBST with 5 mg/ml BSA; 1 h at room temperature). Fluorescence signals were visualized in a Nikon Eclipse E 800 deconvolution microscope using NIS Elements software (Nikon Instruments) for image acquisition and processing, and AutoQuant (Media Cybernetics) for 3D deconvolution. The effect of methazolamide in preventing the Aβ-induced release of CytC from the mitochondria into the cytoplasm was evaluated in EC and SH-SY5Y cultures. After peptide incubation in the presence and absence of methazolamide (Sigma), release of CytC was visualized by immunofluorescence microscopy and WB analysis, and corroborated by confocal assessment of CytC in conjunction with the mitochondrial marker MitoTracker®.

hCMEC/D3 cells (D3) = experiment: Cell Death ELISAplus, Aβ-induced apoptosis; format: cell-based, human; settings: Example 2/3; Aβ40-Q22 challenge; FIG. 17B, 21
Protocol: 20.000 cells per well were plated on 24-wells plates. The day after, cells were treated with peptides and/or drugs, following the experimental conditions.
20,000 cells per well were plated on 24-wells plates. The day after, cells were treated with peptides and/or drugs, following the experimental conditions.

[4] = ATZ 10 μM added to the peptides
[5] = Aβ-Iowa(isoD), 1 day, methazolamide starting at 100 μM

Row | SMILES | intracellular pH values [1] | caspase 9 activation (caspase 9 in D3 cells) | signs of toxicity, weight loss or death (TgSwDI mice) | caspase 9 activation [2] | loss of ΔΨ (SH-SY5Y neuronal cells; [4]) | ΔΨ after pre-aggregated Aβ (SH-SY5Y neuronal cells) | loss of ΔΨ [3, 4] | ΔΨ after pre-aggregated Aβ [3] | loss of mitochondrial membrane potential (red dye internalization) (EC and SH-SY5Y cultures) | apoptosis in response to Aβ (hCMEC/D3 cells (D3)) | caspase 9 over-activation ([2]; 100 or 300 μM MTZ, 10 μM Aβ42, 24 hours) | caspase 9 activity, drug alone ([2]; MTZ alone in absence of Aβ) | mitochondrial membrane potential (MitoTracker localization) (EC and SH-SY5Y cultures; [5]) | subcellular localization of CytC (EC and SH-SY5Y cultures; [5])
1 | CC(=O)Nc1nnc(S(N)(=O)=O)s1 [ATZ, acetazolamide] | did not show any significant changes | protective effect | without showing signs of toxicity, weight loss or increased death of the animals | protective effect | prevent loss of ΔΨ | rescue ΔΨ to values similar to those observed under control conditions | prevent loss of ΔΨ | rescue ΔΨ to values similar to those observed under control conditions | prevented | prevented | – | – | – | –
2 | CC(=O)/N=c1/sc(S(N)(=O)=O)nn1C [MTZ, methazolamide] | did not show any significant changes | protective effect | without showing signs of toxicity, weight loss or increased death of the animals | protective effect | – | rescue ΔΨ to values similar to those observed under control conditions | – | rescue ΔΨ to values similar to those observed under control conditions | prevented | prevented | completely inhibited | did not have any effect | restored the mitochondrial membrane potential | preserved the subcellular localization of CytC

— patent US10780094B2, “Use of carbonic anhydrase inhibitors for treatment of neurological and psychiatric disorders” (New York University, priority 2016, dated 2020)
